Measured values from patent US12018016B2, “Aryl sulfonyl (hydroxy) piperidines as CCR6 inhibitors” (CHEMOCENTRYX, INC., priority 2021, dated 2024).

What follows are compounds tested against T1, human CCR6 (Homo sapiens, UniProt P51684) (assay: Migration assay (chemotaxis, ChemoTX)). Conditions: hCCR6-transfected Ba/F3 cells in human serum, migration to recombinant human CCL20 10 nM, 37° C. 45 minutes; read-out: Potency (IC50 value in the migration assay).
T1 construct: expressed in transfected cells; host or cells: Ba/F3 cells (mouse pro-B line)
T1 sequence (P51684 1-374): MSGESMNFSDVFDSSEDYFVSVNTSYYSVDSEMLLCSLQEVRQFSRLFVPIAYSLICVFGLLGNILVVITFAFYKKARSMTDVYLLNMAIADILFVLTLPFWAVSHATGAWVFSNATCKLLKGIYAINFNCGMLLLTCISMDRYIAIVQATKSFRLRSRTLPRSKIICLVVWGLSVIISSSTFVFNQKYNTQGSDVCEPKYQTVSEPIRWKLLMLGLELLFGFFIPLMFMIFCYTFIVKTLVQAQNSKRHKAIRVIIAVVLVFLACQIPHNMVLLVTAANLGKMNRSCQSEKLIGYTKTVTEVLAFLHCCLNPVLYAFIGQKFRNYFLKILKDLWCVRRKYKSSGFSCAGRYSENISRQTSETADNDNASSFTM
Assay type: cell-based
Summary of the method: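 Ba/F3 cells transfected with human CCR6 and butyrate-primed for 24 h were suspended at 4 million/ml in human serum with compound, serially diluted from a 1 μM final top concentration. Cells migrated through a 5-μm polycarbonate membrane toward 10 nM human CCL20 for 45 min at 37 °C. Migrated cells were quantified by CyQUANT fluorescence.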

| IC50 [nM] | SMILES |
| --- | --- |
| < 1 | Cc1nc2[nH]cc(C#N)c2c(C)c1-c1ccc(S(=O)(=O)N2CC[C@@H](Nc3ccc(C(F)(F)F)cn3)[C@@H](O)C2)cc1 [Example 63, 5-(4-(((3S,4R)-3-hydroxy-4-((5-(trifluoromethyl)pyridin-2-yl)amino)piperidin-1-yl)sulfonyl)phenyl)-4,6-dimethyl-1H-pyrrolo[2,3-b]pyridine-3-carbonitrile] |
| 1 to 10 | O=S(=O)(c1ccc(-c2ccc(NC3CCC3)nc2)cc1)N1CC[C@@H](Nc2ccc(C(F)(F)F)cn2)[C@@H](O)C1 [Compound 103] |
| < 1 | Cc1nc2[nH]ccc2c(C)c1-c1ccc(S(=O)(=O)N2CC[C@@H](Nc3ccc(C(F)(F)F)cn3)[C@@H](O)C2)cc1 [Example 45, (3S,4R)-1-((4-(4,6-dimethyl-1H-pyrrolo[2,3-b]pyridin-5-yl)phenyl)sulfonyl)-4-((5-(trifluoromethyl)pyridin-2-yl)amino)piperidin-3-ol] |
| 1 to 10 | CN(C)C1CCN(c2ccc(-c3ccc(S(=O)(=O)N4CC[C@@H](Nc5ccc(C(F)(F)F)cn5)[C@@H](O)C4)cc3)cn2)CC1 [Compound 105] |
| < 1 | Cc1cncc(-c2ccc(S(=O)(=O)N3CC[C@@H](Nc4ccc(C(F)(F)F)cn4)[C@@H](O)C3)cc2)c1 [Compound 152] |
| < 1 | O=C1NCc2cc(-c3ccc(S(=O)(=O)N4CC[C@@H](Nc5ccc(C(F)(F)F)cn5)[C@@H](O)C4)cc3)ccc21 [Example 12, 5-(4-(((3S,4R)-3-hydroxy-4-((5-(trifluoromethyl)pyridin-2-yl)amino)piperidin-1-yl)sulfonyl)phenyl)isoindolin-1-one] |
| 1 to 10 | COC1CN(c2ccc(-c3ccc(S(=O)(=O)N4CC[C@@H](Nc5ccc(C(F)(F)F)cn5)[C@@H](O)C4)cc3)cn2)C1 [Compound 95] |
| < 1 | N#Cc1c[nH]c2ncc(-c3ccc(S(=O)(=O)N4CC[C@@H](Nc5ccc(C(F)(F)F)cn5)[C@@H](O)C4)cc3)cc12 [Example 61, 5-(4-(((3S,4R)-3-hydroxy-4-((5-(trifluoromethyl)pyridin-2-yl)amino)piperidin-1-yl)sulfonyl)phenyl)-1H-pyrrolo[2,3-b]pyridine-3-carbonitrile] |
| < 1 | N#Cc1cc(-c2ccc(S(=O)(=O)N3CC[C@@H](Nc4ccc(C(F)(F)F)cn4)[C@@H](O)C3)cc2)ccn1 [Example 57, 4-(4-(((3S,4R)-3-hydroxy-4-((5-(trifluoromethyl)pyridin-2-yl)amino)piperidin-1-yl)sulfonyl)phenyl)picolinonitrile] |
| < 1 | O=S(=O)(c1ccc(-c2ccc(N3CC[C@H](O)C3)nc2)cc1)N1CC[C@@H](Nc2ccc(C(F)(F)F)cn2)[C@@H](O)C1 [Compound 175] |
| < 1 | N[C@H]1C[C@H](Nc2ccc(-c3ccc(S(=O)(=O)N4CC[C@@H](Nc5ccc(C(F)(F)F)cn5)[C@@H](O)C4)cc3)cn2)C1 [Compound 94] |
| < 1 | O=S(=O)(c1ccc(-c2ccnc(N3CCC3)c2)cc1)N1CC[C@@H](Nc2ccc(C(F)(F)F)cn2)[C@@H](O)C1 [Compound 139] |
| 1 to 10 | NC(=O)c1ccnc(-c2ccc(S(=O)(=O)N3CC[C@@H](Nc4ccc(C(F)(F)F)cn4)[C@@H](O)C3)cc2)c1 [Example 18, 2-(4-(((3S,4R)-3-Hydroxy-4-((5-(trifluoromethyl)pyridin-2-yl)amino)piperidin-1-yl)sulfonyl)phenyl)isonicotinamide] |
| 10 to 1000 | Cn1ccnc1-c1cc(-c2ccc(S(=O)(=O)N3CC[C@@H](Nc4ccc(C(F)(F)F)cn4)[C@@H](O)C3)cc2)ccn1 [Compound 65, (3S,4R)-1-((4-(2-(1-methyl-1H-imidazol-2-yl)pyridin-4-yl)phenyl)sulfonyl)-4-((5-(trifluoromethyl)pyridin-2-yl)amino)piperidin-3-ol] |
| 1 to 10 | O=C1CNCCN1c1cc(-c2ccc(S(=O)(=O)N3CC[C@@H](Nc4ccc(C(F)(F)F)cn4)[C@@H](O)C3)cc2)ccn1 [Compound 88, 1-(4-(4-(((3S,4R)-3-hydroxy-4-((5-(trifluoromethyl)pyridin-2-yl)amino)piperidin-1-yl)sulfonyl)phenyl)pyridin-2-yl)piperazin-2-one] |
| < 1 | N#Cc1ccc(N[C@@H]2CCN(S(=O)(=O)c3ccc(-c4cnc5[nH]cc(C#N)c5c4)cc3)C[C@@H]2O)nc1 [Example 34, 5-[4-[[(3S,4R)-4-[(5-cyano-2-pyridyl)amino]-3-hydroxy-1-piperidyl]sulfonyl]phenyl]-1H-pyrrolo[2,3-b]pyridine-3-carbonitrile] |
| < 1 | Cc1cc(-c2ccc(S(=O)(=O)N3CC[C@@H](Nc4ccc(C(F)(F)F)cn4)[C@@H](O)C3)cc2)cc(C(N)=O)n1 [Compound 206] |
| 1 to 10 | NC(=O)c1ncc(-c2ccc(S(=O)(=O)N3CC[C@@H](Nc4ccc(C(F)(F)F)cn4)[C@@H](O)C3)cc2)cc1N [Example 19, 3-Amino-5-(4-(((3S,4R)-3-hydroxy-4-((5-(trifluoromethyl)pyridin-2-yl)amino)piperidin-1-yl)sulfonyl)phenyl)picolinamide] |
| < 1 | Cc1cnc(-c2cc(-c3ccc(S(=O)(=O)N4CC[C@@H](Nc5ccc(C(F)(F)F)cn5)[C@@H](O)C4)cc3)ccn2)o1 [Compound 70, (3S,4R)-1-((4-(2-(5-methyloxazol-2-yl)pyridin-4-yl)phenyl)sulfonyl)-4-((5-(trifluoromethyl)pyridin-2-yl)amino)piperidin-3-ol] |
| < 1 | Cc1nnc(-c2cc(-c3ccc(S(=O)(=O)N4CC[C@@H](Nc5ccc(C(F)(F)F)cn5)[C@@H](O)C4)cc3)c(C)cn2)o1 [Compound 213] |
| < 1 | Cc1c(-c2ccc(S(=O)(=O)N3CC[C@@H](Nc4ccc(C(F)(F)F)cn4)[C@@H](O)C3)cc2)ccnc1N [Compound 166] |
| < 1 | O=c1[nH]ncc2cc(-c3ccc(S(=O)(=O)N4CC[C@@H](Nc5ccc(C(F)(F)F)cn5)[C@@H](O)C4)cc3)ccc12 [Example 5, 6-(4-(((3S,4R)-3-hydroxy-4-((5-(trifluoromethyl)pyridin-2-yl)amino)piperidin-1-yl)sulfonyl)phenyl)phthalazin-1(2H)-one] |
| < 1 | NC(=O)c1cc(-c2ccc(S(=O)(=O)N3CC[C@@H](Nc4ccc(C(F)(F)F)cn4)[C@@H](O)C3)cc2)ccn1 [Example 31, 4-(4-(((3S,4R)-3-hydroxy-4-((5-(trifluoromethyl)pyridin-2-yl)amino)piperidin-1-yl)sulfonyl)phenyl)picolinamide] |
| 1 to 10 | Cc1c[nH]c(-c2cc(-c3ccc(S(=O)(=O)N4CC[C@@H](Nc5ccc(C(F)(F)F)cn5)[C@@H](O)C4)cc3)ccn2)n1 [Compound 215] |
| < 1 | N[C@H]1C[C@H](Nc2cc(-c3ccc(S(=O)(=O)N4CC[C@@H](Nc5ccc(C(F)(F)F)cn5)[C@@H](O)C4)cc3)ccn2)C1 [Compound 128] |
| < 1 | Cc1cc(-c2ccc(S(=O)(=O)N3CC[C@@H](Nc4ccc(C(F)(F)F)cn4)[C@@H](O)C3)cc2)cc2c1C(=O)NC2 [Compound 78, 5-(4-(((3S,4R)-3-hydroxy-4-((5-(trifluoromethyl)pyridin-2-yl)amino)piperidin-1-yl)sulfonyl)phenyl)-7-methylisoindolin-1-one] |
| < 1 | O=C(NCCO)c1cc(-c2ccc(S(=O)(=O)N3CC[C@@H](Nc4ccc(C(F)(F)F)cn4)[C@@H](O)C3)cc2)ccn1 [Example 41] |
